Our source for the IC50 values is patent EP1953147A1, “HETEROCYCLIC COMPOUND AND MEDICINAL APPLICATION THEREOF” (priority 2005, dated 2007).

The subject of this assay is ΔG/SEAP/HCV E1E2. Briefly: Effect of test substance on cell infection with HCV pseudotype virus (SEAP reporter assay in HepG2 cells). Type of assay: cell-based. The note with it: Hepatitis C virus. On the technique in general: A reporter such as luciferase makes a cellular process visible.

Compound `CCNC(=O)CN1CCc2c(-c3cc(OC)cc(OC)c3)nn(-c3cc(N4CC[C@H](O)C4)ccc3C(F)(F)F)c(=O)c21` [Example 33, 2-{4-(3,5-dimethoxy-phenyl)-6-[5-((S)-3-hydroxy-pyrrolidin-1-yl)-2-trifluoromethyl-phenyl]-7-oxo-2,3,6,7-tetrahydro-pyrrolo[2,3-d]pyridazin-1-yl}-N-ethyl-acetamide] showed a half-maximal inhibitory concentration (IC50) of less than 100 nM.
For `COc1cc(OC)cc(-c2nn(-c3cc(N)ccc3C(F)(F)F)c(=O)c3c2CCN3CCO)c1` [Example 1-41, 6-(5-amino-2-trifluoromethyl-phenyl)-4-(3,5-dimethoxy-phenyl)-1-(2-hydroxy-ethyl)-1,2,3,6-tetrahydro-pyrrolo[2,3-d]pyridazin-7-one] the value was less than 100 nM.
For `COc1cc(OC)cc(-c2nn(-c3cc(N4CC[C@H](O)C4)ccc3C(F)(F)F)c(=O)c3c2CCN3CC(=O)NCCCN2CCN(CCCNC(C)=O)CC2)c1` [Example 56, N-{3-[4-(3-acetylamino-propyl)-piperazin-1-yl]-propyl}-2-{4-(3,5-dimethoxy-phenyl)-6-[5-((S)-3-hydroxy-pyrrolidin-1-yl)-2-trifluoromethyl-phenyl]-7-oxo-2,3,6,7-tetrahydro-pyrrolo[2,3-d]pyridazin-1-yl}-acetamide] the value was 100 to 10000 nM; for `COc1cc(OC)cc(-c2nn(-c3cc(NCCNC(=O)OC(C)(C)C)ccc3C(F)(F)F)c(=O)c3c2CCC3)c1` [Example 118, (2-{3-[4-(3,5-dimethoxy-phenyl)-1-oxo-1,5,6,7-tetrahydro-cyclopenta[d]pyridazin-2-yl]-4-trifluoromethyl-phenylamino}-ethyl)-carbamic acid tert-butyl ester], less than 100 nM.
In turn, `CCOC(=O)N1CCc2c(-c3cc(O)cc(O)c3)nn(-c3cc(N4CC[C@H](O)C4)ccc3C(F)(F)F)c(=O)c21` [Example 61, 4-(3,5-dihydroxy-phenyl)-6-[5-((S)-3-hydroxy-pyrrolidin-1-yl)-2-trifluoromethyl-phenyl]-7-oxo-2,3,6,7-tetrahydro-pyrrolo[2,3-d]pyridazine-1-carboxylic acid ethyl ester] registered an IC50 of 100 to 10000 nM.
For `COc1cc(C)cc(-c2nn(-c3cc(N4CC[C@H](O)C4)ccc3C(F)(F)F)c(=O)c3c2CCN3)c1` [Example 14, 6-[5-((S)-3-hydroxy-pyrrolidin-1-yl)-2-trifluoromethyl-phenyl]-4-(3-methoxy-5-methyl-phenyl)-1,2,3,6-tetrahydro-pyrrolo[2,3-d]pyridazin-7-one] the value was less than 100 nM; for `COc1cc(OC)cc(-c2nn(-c3cc(N4CC[C@H](O)C4)ccc3S(C)(=O)=O)c(=O)c3c2CCC3)c1` [Example 38, 4-(3,5-dimethoxy-phenyl)-2-[5-((S)-3-hydroxy-pyrrolidin-1-yl)-2-methanesulfonyl-phenyl]-2,5,6,7-tetrahydro-cyclopenta[d]pyridazin-1-one], less than 100 nM.
The same measure for `O=c1c2c(c(C3=CCCCC3)nn1-c1cc(N3CC[C@H](O)C3)ccc1C(F)(F)F)CCC2` [Example 113, 4-cyclohex-1-enyl-2-[5-((S)-3-hydroxy-pyrrolidin-1-yl)-2-trifluoromethyl-phenyl]-2,5,6,7-tetrahydro-cyclopenta[d]pyridazin-1-one]: 100 to 10000 nM; for `Cc1cc(-c2cnco2)cc(-c2nn(-c3cc(-c4cccnn4)ccc3C(F)(F)F)c(=O)c3c2CCC3)c1` [Example 3, 4-(3-methyl-5-oxazol-5-yl-phenyl)-2-(5-pyridazin-3-yl-2-trifluoromethyl-phenyl)-2,5,6,7-tetrahydro-cyclopenta[d]pyridazin-1-one]: less than 100 nM; for `COc1cc(OC)cc(-c2nn(-c3cc(NC4CC4)ccc3C(F)(F)F)c(=O)c3c2CCC3)c1` [Example 140, 2-(5-cyclopropylamino-2-trifluoromethyl-phenyl)-4-(3,5-dimethoxy-phenyl)-2,5,6,7-tetrahydro-cyclopenta[d]pyridazin-1-one]: less than 100 nM.

As usually defined, the IC50 is the concentration needed to halve the response being measured. A higher IC50 goes with lower potency.
